Reference: PubChem BioAssay AID1259411 (Chemical Carcinogenesis Research Information System (CCRIS), 2018)
The source made the active and inactive calls. How the calls were made is not given here.

Tested on: rodent carcinogenicity bioassays, tumor incidence
Test: CCRIS carcinogenicity studies
Outline: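 NCI-built, expert-reviewed records of carcinogenicity and related test outcomes (mutagenicity, tumor promotion/inhibition) compiled from published and report sources, historical span 1985-2011, not updated.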

Compound: Cc1c2c(c(C)c3c1ccc1ccccc13)CCCC2
- carcinogen call (Species: MOUSE, Strain/Sex: SWISS/FEMALE, Route: DERMAL, Dose: 0, 41 UG IN ACETONE (0.2%) 2/WK FOR 65 WK FOR A TOTAL DOSE OF 0, 5.3 MG (STUDY DURATION: 80 WK), Dose: 0, 41 UG IN ACETONE (0.2%) 2/WK FOR 65 WK FOR A TOTAL DOSE OF 0, 5.3 MG (STUDY DURATION: 80 WK), Tumor Site: Type of Lesion: SKIN: CARCINOMA, SKIN: PAPILLOMA): active; positive

Compound: Cc1cc2ccccc2c2ccc3c(c12)[C@@H]1O[C@@H]1[C@H](O)[C@H]3O
- carcinogen call (Species: MOUSE, Strain/Sex: ICR/FEMALE, Route: INTRAPERITONEAL, Dose: 0, 8 NMOL IN 5 µL DMSO ON D 1, 16 NMOL IN 10 µL ON D 8 AND 32 NMOL IN 20 µL ON D 15 OF LIFE (STUDY DURATION: 35 WK), Tumor Site: Type of Lesion: LUNG: TUMOR): active; positive
- carcinogen call (Species: MOUSE, Strain/Sex: ICR/FEMALE, Route: INTRAPERITONEAL, Dose: 0, 8 NMOL IN 5 µL DMSO TO PUPS ON D 1/OF LIFE THEN 16 NMOL IN 10 µL ON D 8 AND 3 NMOL IN 20 µL ON D 15 (STUDY DURATION:, Tumor Site: Type of Lesion: LUNG: TUMOR): active; positive
- carcinogen call (Species: MOUSE, Strain/Sex: ICR/FEMALE, Route: INTRAPERITONEAL, Dose: 8 NMOL/5 µL DMSO ON DAY 1, 16 NMOL/10 µL ON DAY 8, AND 32 NMOL/20 µL ON DAY 15 OF AGE (STUDY DURATION: 35 WK), Tumor Site: Type of Lesion: LUNG: TUMORS): active; positive
- carcinogen call (Species: MOUSE, Strain/Sex: ICR/MALE, Route: INTRAPERITONEAL, Dose: 0, 8 NMOL IN 5 µL DMSO ON D 1, 16 NMOL IN 10 µL ON D 8 AND 32 NMOL IN 20 µL ON D 15 OF LIFE (STUDY DURATION: 35 WK), Tumor Site: Type of Lesion: LUNG: TUMOR, LIVER: TUMOR): active; positive
- carcinogen call (Species: MOUSE, Strain/Sex: ICR/MALE, Route: INTRAPERITONEAL, Dose: 0, 8 NMOL IN 5 µL DMSO TO PUPS ON D 1/OF LIFE THEN 16 NMOL IN 10 µL ON D 8 AND 3 NMOL IN 20 µL ON D 15 (STUDY DURATION:, Tumor Site: Type of Lesion: LUNG: TUMOR, LIVER: TUMOR): active; positive
- carcinogen call (Species: MOUSE, Strain/Sex: ICR/MALE, Route: INTRAPERITONEAL, Dose: 8 NMOL/5 µL DMSO ON DAY 1, 16 NMOL/10 µL ON DAY 8, AND 32 NMOL/20 µL ON DAY 15 OF AGE (STUDY DURATION: 35 WK), Tumor Site: Type of Lesion: LUNG: TUMORS, LIVER: TUMORS): active; positive

Compound: CS(=O)(=O)c1ccc([C@@H](O)[C@@H](CO)NC(=O)C(Cl)Cl)cc1
- carcinogen call (Species: RAT, Strain/Sex: F344/FEMALE, Route: ORAL, Dose: 0, 125, 250 PPM IN DRINKING WATER FOR 104 WK (STUDY DURATION: 108 WK), Dose: 0, 125, 250 PPM IN DRINKING WATER FOR 104 WK (STUDY DURATION: 108 WK)): inactive; negative
- carcinogen call (Species: RAT, Strain/Sex: F344/MALE, Route: ORAL, Dose: 0, 125, 250 PPM IN DRINKING WATER FOR 104 WK (STUDY DURATION: 108 WK), Dose: 0, 125, 250 PPM IN DRINKING WATER FOR 104 WK (STUDY DURATION: 108 WK)): inactive; negative

Compound: O=[N+]([O-])c1ccc2c(c1)-c1ccc([N+](=O)[O-])c3cccc-2c13
- carcinogen call (Species: RAT, Strain/Sex: F344/DUCRJ/MALE, Route: PULMONARY IMPLANT, Dose: 0, 0.05, 0.1, 0.2 MG AS A SUSPENSION IN EQUAL VOL OF BEESWAX AND TRICAPRYLIN IMPLANTED IN LEFT LUNG (STUDY DURATION: 70, Dose: 0, 0.05, 0.1, 0.2 MG AS A SUSPENSION IN EQUAL VOL OF BEESWAX AND TRICAPRYLIN IMPLANTED IN LEFT LUNG (STUDY DURATION: 70, Tumor Site: Type of Lesion: LUNG: TUMOR): active; positive
- carcinogen call (Species: RAT, Strain/Sex: F344/MALE, Route: LUNG IMPLANT, Dose: 0, 50, 100, 200 UG IN BEESWAX/TRICAPRYLIN INTO LOWER LEFT LUNG ONCE (STUDY DURATION: 100 WK), Dose: 0, 50, 100, 200 UG IN BEESWAX/TRICAPRYLIN INTO LOWER LEFT LUNG ONCE (STUDY DURATION: 100 WK), Tumor Site: Type of Lesion: LUNG: SQUAMOUS CELL CARCINOMA, ADENOSQUAMOUS CARCINOMA, TUMOR): active; positive
- carcinogen call (Species: RAT, Strain/Sex: F344/MALE, Route: PULMONARY IMPLANT, Dose: 0, 50, 100, 200 UG IN 50 µL BEESWAX/TRICAPRYLIN IMPLANTED FOR UP TO 100 WK (STUDY DURATION: 100 WK), Dose: 0, 50, 100, 200 UG IN 50 µL BEESWAX/TRICAPRYLIN IMPLANTED FOR UP TO 100 WK (STUDY DURATION: 100 WK), Tumor Site: Type of Lesion: LUNG: TUMOR): active; positive

Compound: Cc1ccccc1N
- carcinogen call (Species: MOUSE, Strain/Sex: B6C3F1/FEMALE, Route: ORAL, Dose: 0, 1000, 3000 PPM IN DIET FOR 103 WK, Dose: 0, 1000, 3000 PPM IN DIET FOR 103 WK, Tumor Site: Type of Lesion: LIVER: HEPATOCELLULAR CARCINOMA OR HEPATOCELLULAR ADENOMA): active; positive
- carcinogen call (Species: MOUSE, Strain/Sex: B6C3F1/MALE, Route: ORAL, Dose: 0, 1000, 3000 PPM IN DIET FOR 102-103 WK, Dose: 0, 1000, 3000 PPM IN DIET FOR 102-103 WK, Tumor Site: Type of Lesion: BLOOD VESSELS: HEMANGIOMA OR HEMANGIOSARCOMA): active; positive
- carcinogen call (Species: MOUSE, Strain/Sex: CD-1/MALE,FEMALE, Route: ORAL, Dose: 0, 16000, 32000 MG/KG FOR 3 MO, THEN 0, 8000, 16000 MG/KG FOR 15 MO, Dose: 0, 16000, 32000 MG/KG FOR 3 MO, THEN 0, 8000, 16000 MG/KG FOR 15 MO, Tumor Site: Type of Lesion: BLOOD VESSELS: HEMANGIOMA, HEMANGIOSARCOMA): active; positive
- carcinogen call (Species: RAT, Strain/Sex: CD-1/MALE, Route: ORAL, Dose: 0, 8000, 16000 MG/KG FOR 3 MO, THEN 0, 4000, 8000 MG/KG FOR 15 MO, Dose: 0, 8000, 16000 MG/KG FOR 3 MO, THEN 0, 4000, 8000 MG/KG FOR 15 MO, Tumor Site: Type of Lesion: INTEGUMENTARY SYSTEM (SUBCUTANEOUS TISSUE): FIBROMA, FIBROSARCOMA): active; positive
- carcinogen call (Species: RAT, Strain/Sex: F344/FEMALE, Route: ORAL, Dose: 0, 3000, 6000, PPM IN DIET FOR 104 WK (STUDY DURATION: 104 WK), Dose: 0, 3000, 6000, PPM IN DIET FOR 104 WK (STUDY DURATION: 104 WK), Tumor Site: Type of Lesion: SPLEEN OR PERITONEUM: SARCOMA): active; positive
- carcinogen call (Species: RAT, Strain/Sex: F344/FEMALE, Route: ORAL, Dose: 0, 3000, 6000 PPM IN DIET FOR 104 WK, Dose: 0, 3000, 6000 PPM IN DIET FOR 104 WK, Tumor Site: Type of Lesion: SPLEEN: ANGIOSARCOMA, SARCOMA (NOS) OR ANGIOSARCOMA OR OSTEOSARCOMA, URINARY BLADDER: TRANSITIONAL CELL CARCINOMA, TRANS): active; positive
- carcinogen call (Species: RAT, Strain/Sex: F344/MALE, Route: ORAL, Dose: 0, 3000, 6000 PPM IN DIET FOR 101-104 WK, Dose: 0, 3000, 6000 PPM IN DIET FOR 101-104 WK, Tumor Site: Type of Lesion: INTEGUMENTARY SYSTEM (SUBCUTANEOUS TISSUE): FIBROMA, SPLEEN: FIBROMA, ANGIOSARCOMA, MULTIPLE ORGANS OR TUNICA VAGINALIS:, Tumor Site: Type of Lesion: INTEGUMENTARY SYSTEM (SUBCUTANEOUS TISSUE): FIBROMA, SPLEEN: FIBROMA, ANGIOSARCOMA, MULTIPLE ORGANS OR TUNICA VAGINALIS:): active; positive
- carcinogen call (Species: RAT, Strain/Sex: F344/MALE, Route: ORAL, Dose: 0, 3000, 6000 PPM IN DIET FOR 104 WK (STUDY DURATION: 104 WK), Dose: 0, 3000, 6000 PPM IN DIET FOR 104 WK (STUDY DURATION: 104 WK), Tumor Site: Type of Lesion: SPLEEN OR PERITONEUM: SARCOMA): active; positive
- carcinogen call (Species: RAT, Strain/Sex: F344/MALE, Route: ORAL, Dose: 4.0 G/KG IN DIET FOR 72 WK (TOTAL DOSE 0.22 MOL/RAT), Tumor Site: Type of Lesion: SPLEEN: FIBROMA, INTEGUMENTARY SYSTEM (SKIN): FIBROMA, MAMMARY GLAND: FIBROADENOMA, ADENOCARCINOMA, PERITONEAL CAVITY: M, Tumor Site: Type of Lesion: SPLEEN: FIBROMA, INTEGUMENTARY SYSTEM (SKIN): FIBROMA, MAMMARY GLAND: FIBROADENOMA, ADENOCARCINOMA, PERITONEAL CAVITY: M): active; positive

Compound: COc1cccc2c1cc([N+](=O)[O-])c1c(C(=O)O)cc3c(c12)OCO3 (tested in a mixture with another compound)
- carcinogen call (Species: RAT, Strain/Sex: WISTAR/FEMALE, Route: GAVAGE, Dose: 0.1, 1.0, 10 MG/KG/D, 7 D/WK FOR 3 MO (LOW DOSE ALSO GIVEN FOR 6 OR 12 MO), Dose: 0.1, 1.0, 10 MG/KG/D, 7 D/WK FOR 3 MO (LOW DOSE ALSO GIVEN FOR 6 OR 12 MO), Tumor Site: Type of Lesion: FORESTOMACH: PAPILLOMA, CARCINOMA): active; positive
- carcinogen call (Species: RAT, Strain/Sex: WISTAR/MALE, Route: GAVAGE, Dose: 0.1, 1.0, 10 MG/KG/D, 7 D/WK FOR 3 MO (LOW DOSE ALSO GIVEN FOR 6 OR 12 MO), Dose: 0.1, 1.0, 10 MG/KG/D, 7 D/WK FOR 3 MO (LOW DOSE ALSO GIVEN FOR 6 OR 12 MO), Tumor Site: Type of Lesion: FORESTOMACH: PAPILLOMA, CARCINOMA, URINARY BLADDER: PAPILLOMA, CARCINOMA, KIDNEY: CARCINOMA, Tumor Site: Type of Lesion: FORESTOMACH: PAPILLOMA, CARCINOMA, URINARY BLADDER: PAPILLOMA, CARCINOMA, KIDNEY: CARCINOMA): active; positive
